Assays:
Test in all cases: relative viability (nuclei count vs DMSO), 5 days (fraction); higher = more cells survive
Ispinesib + Vorinostat = compound: Cc1ccc(C(=O)N(CCCN)[C@@H](c2nc3cc(Cl)ccc3c(=O)n2Cc2ccccc2)C(C)C)cc1 [Ispinesib] + O=C(CCCCCCC(=O)Nc1ccccc1)NO [Vorinostat] (partner 1 µM)
Summary of the method: (§1)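 After 5 days of treatment, lung cancer cells in 1536-well plates were fixed and stained in a single step (final 0.05% Triton X-100, 1% formaldehyde, 1 ug/ml Hoechst) and their nuclei counted on 4× images. Treatment had been applied by pin tool the day after seeding as one drug alone or as a fixed anchor-drug dose with five library-drug doses (not always all listed) in √10 steps. Relative viability is the nuclei count of treated wells divided by that of vehicle wells, and values are medians of duplicate plates.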

Ispinesib + Crizotinib = compound: Cc1ccc(C(=O)N(CCCN)[C@@H](c2nc3cc(Cl)ccc3c(=O)n2Cc2ccccc2)C(C)C)cc1 [Ispinesib] + C[C@@H](Oc1cc(-c2cnn(C3CCNCC3)c2)cnc1N)c1c(Cl)ccc(F)c1Cl [Crizotinib] (partner 1 µM)
Summary of the method: as §1

Linsitinib + Alpelisib = compound: C[C@]1(O)C[C@@H](c2nc(-c3ccc4ccc(-c5ccccc5)nc4c3)c3c(N)nccn32)C1 [Linsitinib] + Cc1nc(NC(=O)N2CCC[C@H]2C(N)=O)sc1-c1ccnc(C(C)(C)C(F)(F)F)c1 [Alpelisib] (partner 2 µM)
Summary of the method: as §1

Linsitinib + Phenformin = compound: C[C@]1(O)C[C@@H](c2nc(-c3ccc4ccc(-c5ccccc5)nc4c3)c3c(N)nccn32)C1 [Linsitinib] + N=C(N)NC(=N)NCCc1ccccc1 [Phenformin] (partner 250 µM)
Summary of the method: as §1

Row | Cell Line | relative viability (Ispinesib + Vorinostat; first compound 0.001 µM) | relative viability (Ispinesib + Vorinostat; first compound 0.003162 µM) | relative viability (Ispinesib + Vorinostat; first compound 0.01 µM) | relative viability (Ispinesib + Vorinostat; first compound 0.03162 µM) | relative viability (Ispinesib + Vorinostat; first compound 0.1 µM) | relative viability (Ispinesib + Crizotinib; first compound 0.001 µM) | relative viability (Ispinesib + Crizotinib; first compound 0.003162 µM) | relative viability (Ispinesib + Crizotinib; first compound 0.01 µM) | relative viability (Ispinesib + Crizotinib; first compound 0.03162 µM) | relative viability (Ispinesib + Crizotinib; first compound 0.1 µM) | relative viability (Linsitinib + Alpelisib; first compound 0.01 µM) | relative viability (Linsitinib + Alpelisib; first compound 0.03162 µM) | relative viability (Linsitinib + Alpelisib; first compound 0.1 µM) | relative viability (Linsitinib + Alpelisib; first compound 0.3162 µM) | relative viability (Linsitinib + Alpelisib; first compound 1 µM) | relative viability (Linsitinib + Phenformin; first compound 0.01 µM) | relative viability (Linsitinib + Phenformin; first compound 0.03162 µM) | relative viability (Linsitinib + Phenformin; first compound 0.1 µM) | relative viability (Linsitinib + Phenformin; first compound 0.3162 µM) | relative viability (Linsitinib + Phenformin; first compound 1 µM)
1 | LU99A | 0.445 | 0.485 | 0.467 | 0.265 | 0.247 | 0.503 | 0.589 | 0.569 | 0.421 | 0.231 | 0.517 | 0.547 | 0.505 | 0.417 | 0.332 | 0.919 | 0.848 | 0.781 | 0.475 | 0.555
2 | LXF-289 | 0.758 | 0.772 | 0.837 | 0.478 | 0.217 | 0.798 | 0.815 | 0.888 | 0.759 | 0.397 | 0.992 | 0.988 | 1.1 | 0.841 | 1.02 | 0.5 | 0.448 | 0.523 | – | 0.471
3 | NCI-H23 | 0.542 | 0.619 | 0.647 | 0.419 | 0.21 | 0.475 | 0.46 | 0.595 | 0.499 | 0.283 | 0.728 | 0.577 | 0.582 | 0.448 | 0.516 | 0.821 | 0.863 | 0.764 | 0.53 | 0.503
4 | NCI-H322M | 0.96 | 0.95 | 0.995 | 0.659 | 0.505 | 1.03 | 0.918 | 0.976 | 0.747 | 0.973 | 0.711 | 0.774 | 0.921 | 0.703 | 0.673 | 0.832 | 0.765 | 0.814 | 0.545 | 0.552
5 | NCI-H358 | 0.977 | 0.752 | 0.744 | 0.703 | 0.196 | 0.617 | 0.515 | 0.665 | 0.409 | 0.424 | 0.794 | 0.804 | 0.734 | 0.471 | 0.479 | 0.304 | 0.273 | 0.306 | 0.228 | 0.207
6 | NCI-H441 | 0.838 | 0.909 | 0.91 | 0.548 | 0.256 | 0.834 | 0.697 | 0.485 | 0.217 | 0.222 | 0.863 | 0.839 | 0.804 | 0.539 | 0.629 | 0.944 | 0.966 | 0.675 | 0.442 | 0.298
7 | NCI-H460 | 1.37 | 1.03 | 1.1 | 0.237 | 0.107 | 1.11 | 1.07 | – | 0.38 | 0.083 | 0.46 | 0.325 | 0.475 | 0.329 | 0.351 | 0.511 | 0.44 | 0.521 | 0.394 | 0.342
8 | NCI-H520 | 0.776 | 0.71 | 0.662 | 0.268 | 0.234 | 0.783 | 0.631 | 0.781 | 0.346 | 0.438 | 0.873 | 0.762 | 0.97 | – | 0.962 | 0.567 | 0.53 | 0.607 | – | 0.547
9 | NCI-H596 | 0.58 | 0.741 | 0.642 | 0.609 | 0.35 | 1.1 | 0.95 | 1 | 1.03 | 0.652 | 0.508 | 0.532 | 0.406 | 0.418 | 0.443 | 0.721 | 0.638 | 0.678 | 0.774 | 0.833
10 | NCI-H647 | 0.637 | 0.57 | 0.497 | 0.333 | 0.141 | 1.18 | 0.869 | 0.942 | 0.416 | 0.207 | 1.14 | 1.19 | 0.914 | – | 0.951 | 0.524 | 0.464 | 0.537 | – | 0.438
11 | NCI-H650 | 0.508 | 0.459 | 0.475 | 0.365 | 0.199 | 0.526 | 0.669 | 0.826 | 0.595 | 0.404 | 1.34 | 1.23 | 1.02 | – | 1.07 | 0.443 | 0.484 | 0.432 | 0.337 | 0.364
12 | NCI-H661 | 0.869 | 0.804 | 0.849 | 0.302 | 0.19 | 1.02 | – | 1.04 | 0.736 | 0.376 | 0.593 | 0.539 | 0.46 | 0.667 | 0.449 | 0.291 | 0.221 | 0.268 | 0.293 | 0.255
13 | NCI-H727 | 1.24 | 1.31 | – | 1.05 | 1.06 | – | 0.943 | 1.02 | 0.632 | 0.408 | 0.489 | 0.394 | 0.564 | 0.378 | 0.278 | 0.562 | 0.489 | 0.483 | 0.503 | 0.422
14 | NCI-H838 | 0.738 | 0.726 | 0.739 | 0.625 | 0.238 | 0.955 | 0.901 | 1.22 | 0.725 | 0.285 | 1 | 0.979 | 1.05 | 0.853 | 0.755 | 0.528 | 0.487 | 0.462 | – | 0.395
15 | NCI-H1355 | 0.673 | 0.675 | 0.758 | 0.458 | 0.286 | 1.13 | 1.19 | 1.29 | 1.15 | 0.451 | 0.78 | 0.718 | 0.675 | 0.632 | 0.549 | 0.452 | 0.447 | 0.393 | 0.32 | 0.304
16 | NCI-H1437 | 0.967 | 0.837 | 0.922 | 0.878 | 0.219 | 0.993 | 0.971 | 1.11 | 0.902 | 0.195 | 0.977 | 0.955 | 0.986 | 0.901 | 0.903 | 0.281 | 0.321 | 0.303 | 0.272 | 0.288
17 | NCI-H1651 | 0.529 | 0.605 | 0.676 | 0.512 | 0.548 | 0.855 | 0.936 | 0.99 | 0.959 | 0.735 | 1.03 | 0.989 | 0.822 | 0.738 | 0.957 | 0.324 | 0.344 | 0.304 | 0.272 | 0.311

— the supplement of paper PMC10307832
